Results reported in PubChem BioAssay AID1919007 (Molecular Pharmacology Branch, DTP, NCI, 2023).

Tested on: A498 complex spheroids with HUVEC/MSC, growth
Experiment: Anticancer human tumor A498 cell line growth inhibition [AhR];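 further: seven day exposure starting three days after spheroid seeding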;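 on viability, T/C: luminescence signal used as a surrogate for viable cells; luminescence viability scaled so 100% equals DMSO vehicle wells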
Settings: for IC50: curve of first compound; for viability, T/C: stronger effect = lower value
Summary of the method: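 Spheroids combined tumor cells with HUVEC endothelial cells and human MSCs as stroma. AhR antagonists were paired with standard or investigational drugs, each dosed in half-log steps down from near clinical Cmax, or from 10 microM where Cmax was unknown.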

[1] = second compound 0.1 µM, first compound 0.000949 µM
[2] = second compound 0.1 µM, first compound 0.003 µM
[3] = second compound 0.1 µM, first compound 0.00949 µM
[4] = second compound 0.1 µM, first compound 0.03 µM
[5] = second compound 0.1 µM, first compound 0.0949 µM
[6] = second compound 0.1 µM, first compound 0.3 µM
[7] = second compound 0.316 µM, first compound 0.000949 µM
[8] = second compound 0.316 µM, first compound 0.003 µM
[9] = second compound 0.316 µM, first compound 0.00949 µM
[10] = second compound 0.316 µM, first compound 0.03 µM
[11] = second compound 0.316 µM, first compound 0.0949 µM
[12] = second compound 0.316 µM, first compound 0.3 µM
[13] = second compound 1 µM, first compound 0.000949 µM
[14] = second compound 1 µM, first compound 0.003 µM
[15] = second compound 1 µM, first compound 0.00949 µM
[16] = second compound 1 µM, first compound 0.03 µM
[17] = second compound 1 µM, first compound 0.0949 µM
[18] = second compound 1 µM, first compound 0.3 µM
[19] = second compound 3.16 µM, first compound 0.000949 µM
[20] = second compound 3.16 µM, first compound 0.003 µM
[21] = second compound 3.16 µM, first compound 0.00949 µM
[22] = second compound 3.16 µM, first compound 0.03 µM
[23] = second compound 3.16 µM, first compound 0.0949 µM
[24] = second compound 3.16 µM, first compound 0.3 µM
[25] = second compound 10 µM, first compound 0.000949 µM
[26] = second compound 10 µM, first compound 0.003 µM
[27] = second compound 10 µM, first compound 0.00949 µM
[28] = second compound 10 µM, first compound 0.03 µM
[29] = second compound 10 µM, first compound 0.0949 µM
[30] = second compound 10 µM, first compound 0.3 µM
[31] = second compound 0.1 µM, first compound 0.0316 µM
[32] = second compound 0.1 µM, first compound 0.1 µM
[33] = second compound 0.1 µM, first compound 0.316 µM
[34] = second compound 0.1 µM, first compound 1 µM
[35] = second compound 0.1 µM, first compound 3.16 µM
[36] = second compound 0.1 µM, first compound 10 µM
[37] = second compound 0.316 µM, first compound 0.0316 µM
[38] = second compound 0.316 µM, first compound 0.1 µM
[39] = second compound 0.316 µM, first compound 0.316 µM
[40] = second compound 0.316 µM, first compound 1 µM
[41] = second compound 0.316 µM, first compound 3.16 µM
[42] = second compound 0.316 µM, first compound 10 µM
[43] = second compound 1 µM, first compound 0.0316 µM
[44] = second compound 1 µM, first compound 0.1 µM
[45] = second compound 1 µM, first compound 0.316 µM
[46] = second compound 1 µM, first compound 1 µM
[47] = second compound 1 µM, first compound 3.16 µM
[48] = second compound 1 µM, first compound 10 µM
[49] = second compound 3.16 µM, first compound 0.0316 µM
[50] = second compound 3.16 µM, first compound 0.1 µM
[51] = second compound 3.16 µM, first compound 0.316 µM
[52] = second compound 3.16 µM, first compound 1 µM
[53] = second compound 3.16 µM, first compound 3.16 µM
[54] = second compound 3.16 µM, first compound 10 µM
[55] = second compound 10 µM, first compound 0.0316 µM
[56] = second compound 10 µM, first compound 0.1 µM
[57] = second compound 10 µM, first compound 0.316 µM
[58] = second compound 10 µM, first compound 1 µM
[59] = second compound 10 µM, first compound 3.16 µM
[60] = second compound 10 µM, first compound 10 µM

CC(C)CC(NC(=O)C(Cc1ccccc1)NC(=O)c1cnccn1)B(O)O (stereo not given) + Cc1ccccc1N=Nc1ccc(NC(=O)c2ccnn2C)c(C)c1
IC50 (second compound 0.1 µM): 5.25 nM | IC50 (second compound 0.316 µM): 5.75 nM | IC50 (second compound 1 µM): 5.19 nM | IC50 (second compound 3.16 µM): 5.16 nM | IC50 (second compound 10 µM): 5.11 nM | viability, T/C [1]: 91.9% | viability, T/C [2]: 85.5% | viability, T/C [3]: 12.4% | viability, T/C [4]: 2.56% | viability, T/C [5]: 1.06% | viability, T/C [6]: 0.48% | viability, T/C [7]: 99.1% | viability, T/C [8]: 102% | viability, T/C [9]: 11% | viability, T/C [10]: 3.7% | viability, T/C [11]: 3.08% | viability, T/C [12]: 1.05% | viability, T/C [13]: 81.7% | viability, T/C [14]: 86.3% | viability, T/C [15]: 12.4% | viability, T/C [16]: 3.99% | viability, T/C [17]: 2.9% | viability, T/C [18]: 0.61% | viability, T/C [19]: 80.9% | viability, T/C [20]: 86.7% | viability, T/C [21]: 11.8% | viability, T/C [22]: 4.56% | viability, T/C [23]: 3.32% | viability, T/C [24]: 0.84% | viability, T/C [25]: 84.8% | viability, T/C [26]: 87.2% | viability, T/C [27]: 8.3% | viability, T/C [28]: 4.14% | viability, T/C [29]: 1.64% | viability, T/C [30]: 1.69%

CCc1c2c(nc3ccc(O)cc13)-c1cc3c(c(=O)n1C2)COC(=O)[C@]3(O)CC + Cc1ccccc1N=Nc1ccc(NC(=O)c2ccnn2C)c(C)c1
IC50 (second compound 0.1 µM): 57.6 nM | IC50 (second compound 0.316 µM): 71.1 nM | IC50 (second compound 1 µM): 52.1 nM | IC50 (second compound 3.16 µM): 44.2 nM | IC50 (second compound 10 µM): 60.4 nM | viability, T/C [1]: 89.2% | viability, T/C [2]: 78.2% | viability, T/C [3]: 72.8% | viability, T/C [4]: 55.9% | viability, T/C [5]: 44.1% | viability, T/C [6]: 38.8% | viability, T/C [7]: 84.9% | viability, T/C [8]: 83.5% | viability, T/C [9]: 80.3% | viability, T/C [10]: 61.6% | viability, T/C [11]: 45.4% | viability, T/C [12]: 45% | viability, T/C [13]: 83.1% | viability, T/C [14]: 85.9% | viability, T/C [15]: 78% | viability, T/C [16]: 58.2% | viability, T/C [17]: 38.8% | viability, T/C [18]: 43.6% | viability, T/C [19]: 86.9% | viability, T/C [20]: 78.7% | viability, T/C [21]: 76.2% | viability, T/C [22]: 54.5% | viability, T/C [23]: 40% | viability, T/C [24]: 34.8% | viability, T/C [25]: 84.3% | viability, T/C [26]: 79.5% | viability, T/C [27]: 77.8% | viability, T/C [28]: 62.2% | viability, T/C [29]: 41.4% | viability, T/C [30]: 39.4%

Nc1ccccc1NC(=O)c1ccc(CNC(=O)OCc2cccnc2)cc1 + Cc1ccccc1N=Nc1ccc(NC(=O)c2ccnn2C)c(C)c1
IC50 (second compound 0.1 µM): 1500 nM | IC50 (second compound 0.316 µM): 1670 nM | IC50 (second compound 1 µM): 1430 nM | IC50 (second compound 3.16 µM): 1200 nM | IC50 (second compound 10 µM): 1160 nM | viability, T/C [31]: 101% | viability, T/C [32]: 91.4% | viability, T/C [33]: 82.5% | viability, T/C [34]: 64.6% | viability, T/C [35]: 26.8% | viability, T/C [36]: 1.44% | viability, T/C [37]: 123% | viability, T/C [38]: 92.6% | viability, T/C [39]: 86.5% | viability, T/C [40]: 72% | viability, T/C [41]: 28.5% | viability, T/C [42]: 1.77% | viability, T/C [43]: 103% | viability, T/C [44]: 96.2% | viability, T/C [45]: 82% | viability, T/C [46]: 61.5% | viability, T/C [47]: 27.3% | viability, T/C [48]: 1.56% | viability, T/C [49]: 89.3% | viability, T/C [50]: 91.6% | viability, T/C [51]: 74.4% | viability, T/C [52]: 54% | viability, T/C [53]: 26.9% | viability, T/C [54]: 1.8% | viability, T/C [55]: 84% | viability, T/C [56]: 80.7% | viability, T/C [57]: 67.8% | viability, T/C [58]: 53.6% | viability, T/C [59]: 29.6% | viability, T/C [60]: 1.63%

O=C(c1cc(Cc2n[nH]c(=O)c3ccccc23)ccc1F)N1CCN(C(=O)C2CC2)CC1 + Cc1ccccc1N=Nc1ccc(NC(=O)c2ccnn2C)c(C)c1
IC50 (second compound 0.1 µM): > 10000 nM | IC50 (second compound 0.316 µM): > 10000 nM | IC50 (second compound 1 µM): > 10000 nM | IC50 (second compound 3.16 µM): > 10000 nM | IC50 (second compound 10 µM): > 10000 nM | viability, T/C [31]: 90.1% | viability, T/C [32]: 95.2% | viability, T/C [33]: 90.2% | viability, T/C [34]: 91.9% | viability, T/C [35]: 92.6% | viability, T/C [36]: 83.5% | viability, T/C [37]: 96.3% | viability, T/C [38]: 95.9% | viability, T/C [39]: 95.2% | viability, T/C [40]: 95.1% | viability, T/C [41]: 88.9% | viability, T/C [42]: 90.4% | viability, T/C [43]: 84.6% | viability, T/C [44]: 95.7% | viability, T/C [45]: 91.5% | viability, T/C [46]: 81% | viability, T/C [47]: 85.7% | viability, T/C [48]: 75.9% | viability, T/C [49]: 79.5% | viability, T/C [50]: 92.7% | viability, T/C [51]: 87.6% | viability, T/C [52]: 85.5% | viability, T/C [53]: 76.6% | viability, T/C [54]: 75.8% | viability, T/C [55]: 87.3% | viability, T/C [56]: 83.4% | viability, T/C [57]: 80.3% | viability, T/C [58]: 86.5% | viability, T/C [59]: 75.9% | viability, T/C [60]: 70.6%
